The subject of assay [1] is 3T3-L1 adipocytes. Kind of assay: Calcium flux measurement (FluoForte). The class given is cell-based, Murine. The protocol: 3T3-L1 cells were cultured and differentiated in black wall/clear bottom 96-well plates (Corning). At day seven post-induction, cells were starved overnight in DMEM containing 1 % BSA and loaded with the calcium dye FluoForte AM (Enzo Lifescience) according to the instructions provided by the manufacturer. Intracellular calcium levels were measured using a Synergy 4 microplate reader (BioTeK). […] Baselines for each well were acquired before injection and subtracted afterwards. Ionomycin and EGTA were injected in concentrations of 1 µM.
For orientation: A change in cytosolic calcium serves as a functional read-out for many receptors and channels.

Assay [2] concerns 3T3-L1 adipocytes. The class given is cell-based, Murine. How it is done: Murine 3T3-L1 preadipocytes (ATCC) were maintained in DMEM containing 10% heat inactivated calf serum (CS) at 37°C and 5% CO2. Two days post-confluence, adipocyte differentiation was induced by treating cells with 0.25 mM 3-Isobutyl-1-methylxanthine (IBMX), 1 µM dexamethasone, 1.74 µM insulin and 5 µM Troglitazone in DMEM containing 10% fetal bovine serum (FBS). After 48 hours, the medium was replaced with DMEM supplemented with 10% FBS, insulin and Troglitazone alone. After an additional 48 hours, cells were switched to DMEM with 10% FBS for the rest of the differentiation process and the medium was changed every other day. Seven days post-induction, differentiated 3T3-L1 1 adipocytes were starved overnight in DMEM containing 1 % Bovine Serum Albumin (BSA) before starting different treatments as indicated in the text.
Differentiated 3T3-L1 adipocytes were starved overnight in DMEM containing 1 % BSA and treated as indicated. NAD^+, NADP^+, NADH, and NADPH were determined using the Enzychrom NAD^+/NADH and the Enzychrom NADP^+/NADPH assay kit, respectively (BioAssay Systems) according to manufacturer's instructions. To measure glucose consumption and lactate production, the Glucose RTU and Lactate RTU kits (Biomerieux) were used according to manufacturer's instruction and normalized to cell number. AMP, ADP and ATP were determined as previously described^51. In brief, cells were washed once with ice cold PBS and proteins were precipitated with 1 % trichloroacetic acid (TCA). Repeated ether washes were used to remove TCA from the aqueous extract phase. Extracts were dried and stored at -80°C until further processing. To determine nucleotide phosphates by reversed-phase HPLC cell extracts were lyophilized for 3 days at -20 °C. Dried samples were dissolved in mobile phase A (60 mM K2HP04 and 40 mM KH2P04, adjusted to pH 7 with 0.1 M KOH). 20 µL were injected into an Agilent 1200 HPLC system (Agilent) and nucleotides were separated by gradient elution from an Agilent Eclipse XDB-C18 4.6 x 150 mm column at a flow rate of 1 mL/min. The gradient was 99% phase A from 0-5 minutes, 99% phase A to 40% A from 5-20 minutes and 99% phase A from 20-32.5 minutes. 100% acetonitrile served as mobile phase B. Eluting nucleotides were monitored on a UV detector at 254 nm. ATP, ADP and AMP standards were used to generate calibration curves for peak quantifications.

A further assay concerns AMPK. Nature of the assay: AMPKAR FRET assay of AMPK activity. Type of assay: cell-based, Human. The settings on record: cyclopamine, HEK293 with AMPK-AR reporter.
The subject of assay [3] is C57BL/6J mice. Nature of the assay: Oral glucose tolerance test (OGTT). The class given is in vivo. How it is done:
(§1) C57BL/6J mice were maintained on a standard rodent chow diet and a 12 hour light: 12 hour dark cycle. Eight week old, over-night fasted C57BL/6J male mice were injected intraperitoneally (i.p.) with vehicle (45% hydroxypropyl-β-cyclodextrin; HBS) or cyclopamine (10 mg/kg). Fifteen minutes after injection, an oral glucose tolerance test (OGTT) was performed by administering 2 g/kg glucose by oral gavage. Tail-vein blood was collected to measure glucose and insulin levels. Insulin was measured using the ultrasensitive insulin ELISA Kit from Mercodia, according to the manufacturer's recommendations. For cyclopamine tolerance tests eight week old C57BL/6J mice were i.p. injected with streptozotocin (STZ, 200 mg/kg body weight) to destroy pancreatic beta-cells. 72 hours later STZ-treated mice were separated into two groups and injected i.p. with either vehicle or 10 mg/kg cyclopamine. All animal experiments were carried out according to an ethical animal license protocol in accordance to the animal protection law and approved by the Regierungspräsidium Freiburg (Tierversuchsvorhaben Registrier-Nr.: G-10/94).

The subject of the next assay is Smoothened. The conditions noted are these: cyclopamine 100 nM against standard 200 nM SAG; cited from earlier work.
The subject of assay [4] is STZ-treated C57BL/6J mice. Nature of the assay: Cyclopamine tolerance test in STZ-treated mice. The class given is in vivo. The protocol:
as §1

Assay [5] concerns C57BL/6J mice. Nature of the assay: Glycemic-insulinemic clamp with somatostatin infusion. The class given is in vivo. The protocol:
Indwelling catheters were placed into the left femoral vein and externalised in the interscapular region of 11 week old C57BL/6J mice^17,52. The animals were allowed to recover for 5 days and fasted for 16 hours before the experiment. Somatostatin (SST14 Bachem, Switzerland) was infused at a rate of 1 µg/kg/min and hyperglycemia (12.5 mM) was maintained by variable infusion of 10% glucose. Steady state was maintained for 90 min before cyclopamine injection (2/3 bolus 1/3 infusion; low dose = 1 mg/kg, high-dose = 10 mg/kg), or HBS (Control). Whole blood was sampled from the tail every 10 min during the last hour using a glucometer (AccuCheck Aviva; Roche Diagnostics, Meylan, France).

Description for AMPK: HEK293 cells (ATCC) were grown in DMEM containing 10% FBS. 2 x 10^6 cells were seeded in 10 cm dishes and transfected using the GeneJuice Reagent (Merck) according to manufacturer's instructions. 48 hours after transfection, cells were resuspended in PBS and used for FRET assays.
HEK293 cells transfected with the AMPK-AR construct^40 were resuspended in PBS at a concentration of 10^5 cells/ml. A Synergy 4 microplate reader (BioTeK) was used for measuring FRET signals. In brief, compounds were pipetted into a 96-well plate at the concentrations indicated in the text. Cell suspensions were pre-loaded in the reader to be injected at 10^4 cells/well. The FRET signal was detected using 420/50 nm and 528/20 nm as excitation and emission settings. Baseline values for each well were acquired before injection and subtracted afterwards.

Consider `O=C(O)CN(CCOCCOCCN(CC(=O)O)CC(=O)O)CC(=O)O` [EGTA], for which the “effect on cyclopamine-induced Ca++ response” value with 3T3-L1 adipocytes [1] (EGTA 1 µM) is recorded as “sensitive to extracellular EGTA”. The “effect on SAG- and Shh-induced Ca++ responses” value in the assay on 3T3-L1 adipocytes [1] (EGTA 1 µM, extracellular calcium chelator) is reported as “completely abrogated the SAG-and Shh-induced responses”.

Regarding `c1cc(-c2cnn3cc(-c4ccc(OCCN5CCCCC5)cc4)cnc23)ccn1` [compound C], the “effect on SAG-induced metabolic rewiring (glucose uptake, lactate production, redox balance)” value with 3T3-L1 adipocytes [2] (SAG 200 nM, compound C 10 µM, nifedipine 20 µM, Ptx 100 ng/ml) is “abrogated all detectable metabolic rewiring effects following SAG stimulation”. In the assay with 3T3-L1 adipocytes [2] (cyclopamine 100 nM, compound C 10 µM, nifedipine 20 µM, Ptx 100 ng/ml), the “effect on cyclopamine-dependent glucose uptake, lactate production and redox rebalancing” value was “efficiently counteracted”.

Consider `CC1=C2C[C@H]3[C@@H](CC=C4C[C@@H](O)CC[C@@]43C)[C@@H]2CC[C@]12O[C@@H]1C[C@H](C)CN[C@H]1[C@H]2C` [cyclopamine, 11-deoxojervine], for which, in the assay on AMPK, the “Ampk sensitive FRET signal” value was “significant Ampk sensitive FRET signal”. In the assay on 3T3-L1 adipocytes [2] (cyclopamine 100 nM), the “NAD+/NADH ratio” value was “augmentation of the NAD^+/NADH ratio”, the generation of lactate result is given as “generation of lactate” and the glucose uptake entry is given as “marked glucose uptake”. The glucose tolerance entry in the assay on C57BL/6J mice [3] (10 mg/kg i.p. 15 minutes prior to testing, 2 g/kg oral glucose) was “moderate but significant improvement in glucose tolerance”. The “basal and glucose-stimulated insulin secretion” value in the assay with C57BL/6J mice [3] (10 mg/kg i.p. pre-treatment) is “Neither basal nor glucose-stimulated insulin secretion appeared affected”. Moreover, the “displacing SAG and blocking canonical signalling” value in the assay with Smoothened was “incapable of displacing standard 200 nM SAG and blocking canonical signalling”. The “Ca++ response” value with 3T3-L1 adipocytes [1] (cyclopamine) was “rapid and robust Ca^++ response”. In addition, in assay [4] (10 mg/kg i.p., insulin-deficient mice), the glucose clearance entry was “significant and robust glucose clearance”. Moreover, in assay [4] (after cyclopamine injection, 10 mg/kg), the “time to glucose clearance” value was approximately 30 min. For the same compound, the “tissue-specific glucose uptake (glucose tracing)” value with C57BL/6J mice [5] (LD 1 mg/kg, HD 10 mg/kg, EDL, Soleus, VL) is reported as “increased glucose-uptake into muscle”. In addition, in the assay on C57BL/6J mice [5] (after cyclopamine infusion), the “time to increase in glucose infusion rate” value lay in the range of 10 to 20 min. The glucose infusion rate result with C57BL/6J mice [5] (low dose 1 mg/kg, high dose 10 mg/kg, somatostatin infusion) is reported as “robust dose-dependent increases in glucose infusion rate”.

These data come from patent EP2620142A1, “Hedgehog signaling pathway involved in energy metabolism” (Max-Planck-Gesellschaft zur Förderung der Wissenschaften …, priority 2012, dated 2013).
